Values of other authors in US20150223465A1, “COMPOSITION CONTAINING 3-CYCLOPROPYL-1-ENYL-PROPANOIC ACID SALTS AND A CARRIER” (Yissum Research Development Company of the Hebrew …, priority 2012, published 2015).

Legend:
[1] = tested on: cut mini carnation flowers; settings: cited from earlier work; for inhibition of the action of ethylene: applied as aqueous solutions to cut mini carnation flowers; for activity as plant ethylene antagonist: in a vapor phase
[2] = tested on: cut flowers; settings: cited from earlier work

Structure (SMILES): CC1=CC1C(=O)O (stereo not drawn) [2-methylcycloprop-2-ene-1-carboxylic acid]
- inhibition of the action of ethylene [1]: did not inhibit
- activity as plant ethylene antagonist [1]: active

Structure (SMILES): O=C(O)CCC1=CC1 [3-cycloprop-1-en-1-ylpropanoic acid]
- inhibition of the action of ethylene [1]: did not inhibit
- activity as plant ethylene antagonist [1]: active

Structure (SMILES): O=C([O-])O.[Na+] [NaHCO3, sodium bicarbonate]
- effect on fresh weight of cut flowers during vase life ([2]; about 1.5 mM NaHCO3 combined with CuSO4): positively affected
- effect on hydraulic stem resistance or transpiration rate ([2]; in vase water of cut flowers): no effect

Structure (SMILES): O=C(O)C1C=C1 [cycloprop-2-ene-1-carboxylic acid]
- inhibition of the action of ethylene [1]: did not inhibit
- activity as plant ethylene antagonist [1]: active

Structure (SMILES): CC(C)N.O=C(O)CCC1=CC1 [propan-2-aminium 3-cycloprop-1-en-1-ylpropanoate]
- inhibition of the action of ethylene [1]: some ethylene sensitivity but the test results were variable
